Measurements as given in US8852634B2, “Dosage formulation” (Hoffmann-La Roche Inc., priority 2005, dated 2014).
Like-named read-outs stand apart in the source and are kept apart here.

Assay: Solubility of the crystalline compounds in aqueous media
Type: physicochemical

solubility (aqueous buffer solutions of pH 3.0-7.0, read-out: solubility in aqueous buffer solutions): < 0.1 µg/mL
solubility (water, 'above noted insolubilities', read-out: solubility in water): < 0.1 µg/mL
Structure (SMILES): Cc1ccccc1-c1cc(N2CCOCC2)ncc1N(C)C(=O)C(C)(C)c1cc(C(F)(F)F)cc(C(F)(F)F)c1 [2-(3,5-bis-trifluoromethyl-phenyl)-N-methyl-N-(6-morpholin-4-yl-4-o-tolyl-pyridin-3-yl)-isobutyramide]
